Source: patent US20210330756A1, “Acetylation of Miro1” (University of South Carolina, priority 2020, published 2021)

How the values were obtained:
[1] = system: axon shaft mitochondria of DRG neurons; experiment: FRAP of Mito-GFP in proximal axon shaft segments of DRG neurons; format: cell-based, rat
From the text: To determine if the effect of growth inhibitors on mitochondrial recovery was limited to distal axons, we performed FRAP on more proximal segments of the axon shaft in DRG neurons expressing Mito-GFP. For analyses of recovery, the bleached ROIs were divided into four subregions along the axon length so that we could distinguish anterograde from retrograde transport-driven Mito-GFP recovery. […] Since this effect of MAG-Fc on recovery could derive from either axons or cell body, we cultured dissociated DRGs in microfluiclic devices where we could limit exposure to MAG-Fc and TubA to the axons.
Mito-KR- and Mito-GFP-expressing DRG neurons were used for FRAP analyses at 48-72 h after transfection. To evaluate mitochondrial motility in Mito-KR-expressing neurons, Mito-KR signals were photobleached using continual exposure to an argon laser set at 594 nm for 30 s (100% laser power) The bleached ROI was then monitored for recovery using an argon laser set at 580 nm every 10 s over 16 min (13% laser power). […]
Vesicle trafficking was quantified using differential ImageJ Difference Tracker Plug-in (Andrews et al., 2010). 50-80-μm long unbranched axon segments at approximately the mid-region between growth cone and cell body were analyzed. […] The distance between the growth tip at end of the post-CALI sequence and the pre-CALI baseline was measured using LAS-X software. […]

Ac-α-tubulin = experiment: Immunoblotting for Ac-α-tubulin in adult DRG neurons; format: cell-based, rat
Description: We tested for this specificity in the adult DRG neurons from above by immunoblotting. […] (A) Number of mitochondria in growth cones after exposing DRG cultures to 10 μM TubA versus vehicle (control) for 1 h is shown as average fold-change in number of mitochondria per growth cone±SEM (n=13 axons across three culture preparations; *, P≤0.05 by one-way ANOVA with Bonferroni post hoc analysis). (B) Representative EMs of Remak bundles (arrowheads) in naive Sciatic nerve and nerves after 2 h vehicle (DMSO) or TubA injection are shown. Arrows indicate mitochondria in the unmyelinated axons. Note that a Schwann cell nucleus (asterisk) is seen in the Remak bundle for DMSO image but not the other two micrographs (scale bar=3 μm). (C) Quantification of number of mitochondria per unmyelinated axon from EM images as in B is shown as average±SEM (n≥5; *****, P≤0.0001 by one-way ANOVA with Bonferroni post hoc analysis). (D-F) Quantification for indicated parameters for mitochondrial transport in sciatic nerve in vivo using tetramethylrhodamine, ethyl ester, perchlorate to visualize mitochondria is shown.
For immunoblotting, protein lysates or immunoprecipitates were denatured by boiling in Laemmli sample buffer, fractionated by SDS-PAGE, and transferred to nitrocellulose membranes. Blots were blocked for 1 h at room temperature with 5% nonfat dry milk in TBS with 0.1% Tween 20 (TBST). Primary antibodies diluted in 5% BSA in TBST were added to the membranes and incubated overnight at 4° C. with rocking. Primary antibodies consisted of rabbit anti-Myc (1:2,000; Cell Signaling; 71D10), rabbit anti-RHOT1 antibody (1:1,000; Aviva Systems Biology; ARP44817 P050), rabbit anti-HDAC6 antibody (1:2,000; Cell Signaling; 7558), rabbit anti-ERK1 (1:5,000; Abcam; ab32537), and affinity-purified custom rabbit anti-Miro1-AcK105 (1:2,500; Twiss laboratory, see above) antibodies. For the anti-Miro1-AcK105 antibody, preimmune and test-bleed sera were used at 1:1,000 dilutions to initially evaluate for specificity. […] Signals were detected using ECL Prime (GE Healthcare) after extensive washing.

## CN1CCc2c(c3ccccc3n2Cc2ccc(C(=O)NO)cc2)C1 [TubA, tubastatin]
[1]; HDAC6 inhibition with TubA
  effect on MAG-Fc's attenuation of axonal Mito-GFP recovery (axon shaft): prevented by HDAC6 inhibition
[1]; TubA-treated cultures
  Mito-GFP recovery pattern along axon shaft: more rapid recovery in proximal segments
Ac-α-tubulin; 1 μM
  Ac-α-tubulin levels: clear increase in Ac-α-tubulin levels
Ac-α-tubulin; 10 μM
  Ac-α-tubulin levels: clear increase in Ac-α-tubulin levels
Ac-α-tubulin; 100 μM
  Ac-α-tubulin levels: clear increase in Ac-α-tubulin levels
